Patent US11046714B2, “2,2-difluorodioxolo A2A receptor antagonists” (Merck Sharp & Dohme Corp., priority 2013, dated 2021)

Molecular target: human A2A receptor (Homo sapiens (Human), UniProt P29274)
Test: competition binding assay using Scintillation Proximity technology
Conditions: membranes from CHO-K1 cells expressing the human A2a receptor; 2.0 nM tritiated compound; Cheng-Prusoff
How it was run: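 Membranes (1.0 μg) from CHO-K1 cells expressing human A2A were treated with adenosine deaminase, then incubated 1 h at room temperature with compound (3000–0.15 nM) and 2.0 nM tritiated SCH-type ligand on WGA SPA beads in PBS plus 10 mM MgCl2. Nonspecific binding was defined with 1 μM CGS 15943. Ki was derived from EC50 via Cheng-Prusoff.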

Sequence of human A2A receptor (P29274 whole entry): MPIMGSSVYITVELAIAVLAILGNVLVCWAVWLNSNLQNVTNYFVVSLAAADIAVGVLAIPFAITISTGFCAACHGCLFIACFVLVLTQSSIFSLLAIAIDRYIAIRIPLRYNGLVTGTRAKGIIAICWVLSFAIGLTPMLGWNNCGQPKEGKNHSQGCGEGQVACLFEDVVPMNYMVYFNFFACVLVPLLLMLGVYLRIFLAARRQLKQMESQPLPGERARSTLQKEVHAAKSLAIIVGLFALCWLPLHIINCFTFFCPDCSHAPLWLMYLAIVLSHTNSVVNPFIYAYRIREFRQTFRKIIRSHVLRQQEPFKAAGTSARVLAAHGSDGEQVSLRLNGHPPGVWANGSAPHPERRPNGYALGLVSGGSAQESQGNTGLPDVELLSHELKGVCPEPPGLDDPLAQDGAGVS

## Nc1nc2c3c(ccc2c2nc(CN4CCN(c5ccc(F)cc5)CC45CC5)nn12)OC(F)(F)O3 [Example 102, 2,2-difluoro-8-((7-(4-fluorophenyl)-4,7-diazaspiro[2.5]octan-4-yl)methyl)-[1,3]dioxolo[4,5-h][1,2,4]triazolo[1,5-c]quinazolin-5-amine]
  Ki: 3.5 nM

## Nc1nc2c3c(ccc2c2nc(CN4CCN(c5ccc(F)cn5)CC45CC5)nn12)OC(F)(F)O3 [Example 103, 2,2-difluoro-8-{[7-(5-fluoropyridin-2-yl)-4,7-diazaspiro[2.5]oct-4-yl]methyl}[1,3]dioxolo[4,5-h][1,2,4] triazolo[1,5-c]quinazolin-5-amine]
  Ki: 3.4 nM

## Nc1nc2c3c(ccc2c2nc(CN4CCN(c5cccc(F)c5)CC45CC5)nn12)OC(F)(F)O3 [Example 104, 2,2-difluoro-8-{[7-(3-fluorophenyl)-4,7-diazaspiro[2.5]oct-4-yl]methyl} [1,3]dioxolo[4,5-h][1,2,4]triazolo [1,5-c]quinazolin-5-amine]
  Ki: 8.7 nM

## COCCOc1ccc(N2CCN(Cc3nc4c5ccc6c(c5nc(N)n4n3)OC(F)(F)O6)C3(CC3)C2)cc1 [Example 105, 2,2-difluoro-8-({7-[4-(2-methoxyethoxy)phenyl]-4,7-diazaspiro[2.5]oct-4-yl}methyl) [1,3]dioxolo[4,5-h][1,2,4]triazolo [1,5-c]quinazolin-5-amine]
  Ki: 3.7 nM

## C[C@@H]1CN(c2ccc(F)cc2)CCN1Cc1nc2c3ccc4c(c3nc(N)n2n1)OC(F)(F)O4 [Example 106, 2,2-difluoro-8-{[(2R)-4-(4-fluorophenyl)-2-methylpiperazin-1-yl]methyl}[1,3]dioxolo[4,5-h][1,2,4] triazolo[1,5-c]quinazolin-5-amine]
  Ki: 2.1 nM

## Cc1ncc(N2CCN(Cc3nc4c5ccc6c(c5nc(N)n4n3)OC(F)(F)O6)[C@H](C)C2)s1 [Example 107, 2,2-difluoro-8-{[(2R)-2-methyl-4-(2-methyl-1,3-thiazol-5-yl)piperazin-1-yl]methyl}[1,3]dioxolo[4,5-h][1,2,4] triazolo[1,5-c]quinazolin-5-amine]
  Ki: 4 nM

## C[C@@H]1CN(c2nsnc2Cl)CCN1Cc1nc2c3ccc4c(c3nc(N)n2n1)OC(F)(F)O4 [Example 108, 8-{[(2R)-4-(4-chloro-1,2,5-thiadiazol-3-yl)-2-methylpiperazin-1-yl]methyl}-2,2-difluoro[1,3] dioxolo[4,5-h][1,2,4]triazolo[1,5-c]quinazolin-5-amine]
  Ki: 7.5 nM

## Nc1nc2c3c(ccc2c2nc(CN4CC(F)(F)C4)nn12)OC(F)(F)O3 [Example 109, 8-((3,3-difluoroazetidin-1-yl)methyl)-2,2-difluoro-[1,3]dioxolo[4,5-h][1,2,4]triazolo[1,5-c]quinazolin-5-amine]
  Ki: 5.9 nM

## CC1(C)CN(Cc2nc3c4ccc5c(c4nc(N)n3n2)OC(F)(F)O5)C1 [Example 110, 8-[(3,3-dimethylazetidin-1-yl)methyl]-2,2-difluoro[1,3]dioxolo[4,5-h][1,2,4]triazolo[1,5-c]quinazolin-5-amine]
  Ki: 2.9 nM

## CC1(F)CN(Cc2nc3c4ccc5c(c4nc(N)n3n2)OC(F)(F)O5)C1 [Example 111, 2,2-difluoro-8-[(3-fluoro-3-methylazetidin-1-yl)methyl][1,3] dioxolo[4,5-h][1,2,4]triazolo[1,5-c]quinazolin-5-amine]
  Ki: 1.4 nM

## CCC1(F)CN(Cc2nc3c4ccc5c(c4nc(N)n3n2)OC(F)(F)O5)C1 [Example 112, 8-[(3-ethyl-3-fluoroazetidin-1-yl)methyl]-2,2-difluoro[1,3] dioxolo[4,5-h][1,2,4]triazolo[1,5-c]quinazolin-5-amine]
  Ki: 2 nM

## Nc1nc2c3c(ccc2c2nc(CN4CC(O)(C(F)(F)F)C4)nn12)OC(F)(F)O3 [Example 113, 11-[(5-amino-2,2-difluoro[1,3]dioxolo [4,5-h][1,2,4]triazolo[1,5-c]quinazolin-8-yl)methyl]-3-(trifluoromethyl) azetidin-3-ol]
  Ki: 2.8 nM

## Nc1nc2c3c(ccc2c2nc(CN4CC(F)(C(F)(F)F)C4)nn12)OC(F)(F)O3 [Example 114, 2,2-difluoro-8-{[3-fluoro-3-(trifluoromethyl)azetidin-1-yl]methyl} [1,3]dioxolo[4,5-h][1,2,4]triazolo[1,5-c]quinazolin-5-amine]
  Ki: 1.4 nM

## Nc1nc2c3c(ccc2c2nc(CN4C[C@H](F)[C@@H](F)C4)nn12)OC(F)(F)O3 [Example 115, 8-{[(3S,4S)-3,4-difluoropyrrolidin-1-yl]methyl}-2,2-difluoro[1,3] dioxolo[4,5-h][1,2,4]triazolo[1,5-c]quinazolin-5-amine]
  Ki: 4.4 nM

## Nc1nc2c3c(ccc2c2nc(CN4CCC(F)(F)C4)nn12)OC(F)(F)O3 [Example 116, 8-[(3,3-difluoropyrrolidin-1-yl)methyl]-2,2-difluoro[1,3]dioxolo[4,5-h][1,2,4] triazolo[1,5-c]quinazolin-5-amine]
  Ki: 1.8 nM

## Nc1nc2c3c(ccc2c2nc(CN4CCC(Oc5ccc(F)cc5)CC4)nn12)OC(F)(F)O3 [Example 117, 2,2-difluoro-8-{[4-(4-fluorophenoxy)piperidin-1-yl]methyl}[1,3]dioxolo [4,5-h][1,2,4]triazolo[1,5-c]quinazolin-5-amine]
  Ki: 4.9 nM

## Nc1nc2c3c(ccc2c2nc(CN4CCCC(F)(F)C4)nn12)OC(F)(F)O3 [Example 118, 8-[(3,3-difluoropiperidin-1-yl)methyl]-2,2-difluoro[1,3]dioxolo[4,5-h][1,2,4] triazolo[1,5-c]quinazolin-5-amine]
  Ki: 4.2 nM

## Nc1nc2c3c(ccc2c2nc(CN4CCC(F)(F)CC4)nn12)OC(F)(F)O3 [Example 119, 8-[(4,4-difluoropiperidin-1-yl)methyl]-2,2-difluoro[1,3]dioxolo[4,5-h][1,2,4] triazolo[1,5-c]quinazolin-5-amine]
  Ki: 1.7 nM

## Nc1nc2c3c(ccc2c2nc(CN4Cc5ccc(F)cc5C4)nn12)OC(F)(F)O3 [Example 120, 2,2-difluoro-8-[(5-fluoro-1,3-dihydro-2H-isoindol-2-yl)methyl][1,3] dioxolo[4,5-h][1,2,4]triazolo[1,5-c]quinazolin-5-amine]
  Ki: 2.7 nM

## Nc1nc2c3c(ccc2c2nc(CN4Cc5cnc(C(F)(F)F)nc5C4)nn12)OC(F)(F)O3 [Example 121, 2,2-difluoro-8-{[2-(trifluoromethyl)-5,7-dihydro-6H-pyrrolo[3,4-d]pyrimidin-6-yl]methyl}[1,3]dioxolo [4,5-h][1,2,4]triazolo[1,5-c]quinazolin-5-amine]
  Ki: 16 nM

## CCc1nnc2n1CCN(Cc1nc3c4ccc5c(c4nc(N)n3n1)OC(F)(F)O5)C2 [Example 122, 8-[(3-ethyl-5,6-dihydro[1,2,4]triazolo [4,3-a]pyrazin-7(8H)-yl)methyl]-2,2-difluoro[1,3]dioxolo[4,5-h][1,2,4] triazolo[1,5-c]quinazolin-5-amine]
  Ki: 110 nM

## Nc1nc2c3c(ccc2c2nc(CN4Cc5ccc(C(F)(F)F)cc5C4)nn12)OC(F)(F)O3 [Example 123, 2,2-difluoro-8-{[5-(trifluoromethyl)-1,3-dihydro-2H-isoindol-2-yl]methyl} [1,3]dioxolo[4,5-h][1,2,4]triazolo[1,5-c]quinazolin-5-amine]
  Ki: 4.9 nM

## Nc1nc2c3c(ccc2c2nc(CNCc4ccc(C(F)(F)F)cc4)nn12)OC(F)(F)O3 [Example 124, 2,2-difluoro-8-({[4-(trifluoromethyl)benzyl]amino}methyl)[1,3]dioxolo [4,5-h][1,2,4]triazolo[1,5-c]quinazolin-5-amine]
  Ki: 1.6 nM

## Nc1nc2c3c(ccc2c2nc(CNC4(C(F)(F)F)CCC4)nn12)OC(F)(F)O3 [Example 125, 2,2-difluoro-8-({[1-(trifluoromethyl)cyclobutyl]amino}methyl)[1,3]dioxolo [4,5-h][1,2,4]triazolo[1,5-c]quinazolin-5-amine]
  Ki: 1.1 nM

## CN(C)Cc1nc2c3ccc4c(c3nc(N)n2n1)OC(F)(F)O4 [Example 126, 8-[(dimethylamino)methyl]-2,2-difluoro[1,3]dioxolo[4,5-h][1,2,4] triazolo[1,5-c]quinazolin-5-amine]
  Ki: 29 nM

## Cc1csc(CN(Cc2nc3c4ccc5c(c4nc(N)n3n2)OC(F)(F)O5)CC2CC2)n1 [Example 127, 8-({(cyclopropylmethyl)[(4-methyl-1,3-thiazol-2-yl)methyl]amino}methyl)-2,2-difluoro[1,3]dioxolo[4,5-h][1,2,4] triazolo[1,5-c]quinazolin-5-amine]
  Ki: 1.4 nM

## Nc1nc2c3c(ccc2c2nc(Cn4cccn4)nn12)OC(F)(F)O3 [Example 128, 8-((1H-pyrazol-1-yl)methyl)-2,2-difluoro-[1,3]dioxolo[4,5-h][1,2,4]triazolo[1,5-c]quinazolin-5-amine]
  Ki: 2.5 nM

## Cc1cc(C)n(Cc2nc3c4ccc5c(c4nc(N)n3n2)OC(F)(F)O5)n1 [Example 129, 8-[(3,5-dimethyl-1H-pyrazol-1-yl)methyl]-2,2-difluoro[1,3]dioxolo[4,5-h][1,2,4]triazolo[1,5-c]quinazolin-5-amine]
  Ki: 1 nM

## Nc1nc2c3c(ccc2c2nc(Cn4nc(C(F)(F)F)cc4C(F)(F)F)nn12)OC(F)(F)O3 [Example 130, 8-{[3,5-bis(trifluoromethyl)-1H-pyrazol-1-yl]methyl}-2,2-difluoro [1,3]dioxolo[4,5-h][1,2,4]triazolo [1,5-c]quinazolin-5-amine]
  Ki: 3.9 nM

## Nc1nc2c3c(ccc2c2nc(CCCN4Cc5cccnc5C4)nn12)OC(F)(F)O3 [Example 137, 8-(3-(5H-pyrrolo[3,4-b]pyridin-6(7H)-yl)propyl)-2,2-difluoro-[1,3]dioxolo[4,5-h][1,2,4]triazolo[1,5-c]quinazolin-5-amine]
  Ki: 1.9 nM

## Nc1nc2c3c(ccc2c2nc([C@@H]4CCCN(CC(F)(F)F)C4)nn12)OC(F)(F)O3 [Example 138, (R)-2,2-difluoro-8-(1-(2,2,2-trifluoroethyl)piperidin-3-yl)-[1,3]dioxolo[4,5-h][1,2,4]triazolo[1,5-c]quinazolin-5-amine]
  Ki: 1 nM
